These results are taken from US11370796B2, “Substituted pyrazoles as LRRK2 inhibitors” (OSCOTEC INC., priority 2017, dated 2022).

This experiment addresses LRRK2 (leucine-rich repeat kinase 2) (Homo sapiens (Human), UniProt Q5S007). In words: Inhibitory effect on LRRK2 in vitro (LANCE kinase assay). The experiment is classed as biochemical. Here is the method:
The inhibitory effect of Compounds 1 to 62 on LRRK2 (leucine-rich repeat kinase 2) in vitro was measured. In the analysis of the results, IC50 values were calculated for a quantitative comparison of the in vitro activity.
After the compound was dissolved in 100% DMSO at 10 mM, it was serially diluted to the range of 1 μM to 10 μM using biochemical LRRK2 assay buffer (50 mM HEPES (4-(2-hydroxyethyl)-1-piperazineethanesulfonic acid) pH 7.5, 10 mM MgCl2, 1 mM EGTA (1,2-bis(o-aminophenoxy)ethane-N,N,N′,N′-tetraacetic acid), 2 mM DTT (dithiothreitol), and 0.01% TWEEN-20 (Aldrich)). Purified LRRK2 (CARNA BIOSCIENCES) was added to a black U-bottom 96-well microtiter plate containing 6 μl of the serially diluted compound, followed by incubation at room temperature for 30 minutes. For the kinase reaction, ATP and a substrate solution specific urea-polypeptide (ULIGHT™-poly TK, PerkinElimer) were added. The reaction was carried out at room temperature for 1 hour, and it was detected with an detection solution (brand name: LANCE™) containing EDTA. A LANCE detection solution containing europium-labeled antibody ([…] PT66) was added, followed by incubation at room temperature for 50 minutes, to terminate the kinase experiment. The phosphorylated substrate was detected by 665 nm emission measurement. IC50 values were calculated by a non-linear regression analysis using a Prism program (PRISM™ software) with reference to the absence of a kinase inhibitor.
As a comparative assay, a compound LRR2-IN-1, that known to be a reference compound for LRRK2 inhibitor, have also tested an inhibitory activity.

[1] abbreviates: Table 1, class symbols, read-out: LRRK2 inhibition rate (IC50).
Where [2] appears, read: purified LRRK2, Table 6, read-out: IC50.

Read-outs that look alike come from different tables or passages of the source. Bounds are passed on as bounds.

Chain of LRRK2 (leucine-rich repeat kinase 2) (Q5S007 whole entry): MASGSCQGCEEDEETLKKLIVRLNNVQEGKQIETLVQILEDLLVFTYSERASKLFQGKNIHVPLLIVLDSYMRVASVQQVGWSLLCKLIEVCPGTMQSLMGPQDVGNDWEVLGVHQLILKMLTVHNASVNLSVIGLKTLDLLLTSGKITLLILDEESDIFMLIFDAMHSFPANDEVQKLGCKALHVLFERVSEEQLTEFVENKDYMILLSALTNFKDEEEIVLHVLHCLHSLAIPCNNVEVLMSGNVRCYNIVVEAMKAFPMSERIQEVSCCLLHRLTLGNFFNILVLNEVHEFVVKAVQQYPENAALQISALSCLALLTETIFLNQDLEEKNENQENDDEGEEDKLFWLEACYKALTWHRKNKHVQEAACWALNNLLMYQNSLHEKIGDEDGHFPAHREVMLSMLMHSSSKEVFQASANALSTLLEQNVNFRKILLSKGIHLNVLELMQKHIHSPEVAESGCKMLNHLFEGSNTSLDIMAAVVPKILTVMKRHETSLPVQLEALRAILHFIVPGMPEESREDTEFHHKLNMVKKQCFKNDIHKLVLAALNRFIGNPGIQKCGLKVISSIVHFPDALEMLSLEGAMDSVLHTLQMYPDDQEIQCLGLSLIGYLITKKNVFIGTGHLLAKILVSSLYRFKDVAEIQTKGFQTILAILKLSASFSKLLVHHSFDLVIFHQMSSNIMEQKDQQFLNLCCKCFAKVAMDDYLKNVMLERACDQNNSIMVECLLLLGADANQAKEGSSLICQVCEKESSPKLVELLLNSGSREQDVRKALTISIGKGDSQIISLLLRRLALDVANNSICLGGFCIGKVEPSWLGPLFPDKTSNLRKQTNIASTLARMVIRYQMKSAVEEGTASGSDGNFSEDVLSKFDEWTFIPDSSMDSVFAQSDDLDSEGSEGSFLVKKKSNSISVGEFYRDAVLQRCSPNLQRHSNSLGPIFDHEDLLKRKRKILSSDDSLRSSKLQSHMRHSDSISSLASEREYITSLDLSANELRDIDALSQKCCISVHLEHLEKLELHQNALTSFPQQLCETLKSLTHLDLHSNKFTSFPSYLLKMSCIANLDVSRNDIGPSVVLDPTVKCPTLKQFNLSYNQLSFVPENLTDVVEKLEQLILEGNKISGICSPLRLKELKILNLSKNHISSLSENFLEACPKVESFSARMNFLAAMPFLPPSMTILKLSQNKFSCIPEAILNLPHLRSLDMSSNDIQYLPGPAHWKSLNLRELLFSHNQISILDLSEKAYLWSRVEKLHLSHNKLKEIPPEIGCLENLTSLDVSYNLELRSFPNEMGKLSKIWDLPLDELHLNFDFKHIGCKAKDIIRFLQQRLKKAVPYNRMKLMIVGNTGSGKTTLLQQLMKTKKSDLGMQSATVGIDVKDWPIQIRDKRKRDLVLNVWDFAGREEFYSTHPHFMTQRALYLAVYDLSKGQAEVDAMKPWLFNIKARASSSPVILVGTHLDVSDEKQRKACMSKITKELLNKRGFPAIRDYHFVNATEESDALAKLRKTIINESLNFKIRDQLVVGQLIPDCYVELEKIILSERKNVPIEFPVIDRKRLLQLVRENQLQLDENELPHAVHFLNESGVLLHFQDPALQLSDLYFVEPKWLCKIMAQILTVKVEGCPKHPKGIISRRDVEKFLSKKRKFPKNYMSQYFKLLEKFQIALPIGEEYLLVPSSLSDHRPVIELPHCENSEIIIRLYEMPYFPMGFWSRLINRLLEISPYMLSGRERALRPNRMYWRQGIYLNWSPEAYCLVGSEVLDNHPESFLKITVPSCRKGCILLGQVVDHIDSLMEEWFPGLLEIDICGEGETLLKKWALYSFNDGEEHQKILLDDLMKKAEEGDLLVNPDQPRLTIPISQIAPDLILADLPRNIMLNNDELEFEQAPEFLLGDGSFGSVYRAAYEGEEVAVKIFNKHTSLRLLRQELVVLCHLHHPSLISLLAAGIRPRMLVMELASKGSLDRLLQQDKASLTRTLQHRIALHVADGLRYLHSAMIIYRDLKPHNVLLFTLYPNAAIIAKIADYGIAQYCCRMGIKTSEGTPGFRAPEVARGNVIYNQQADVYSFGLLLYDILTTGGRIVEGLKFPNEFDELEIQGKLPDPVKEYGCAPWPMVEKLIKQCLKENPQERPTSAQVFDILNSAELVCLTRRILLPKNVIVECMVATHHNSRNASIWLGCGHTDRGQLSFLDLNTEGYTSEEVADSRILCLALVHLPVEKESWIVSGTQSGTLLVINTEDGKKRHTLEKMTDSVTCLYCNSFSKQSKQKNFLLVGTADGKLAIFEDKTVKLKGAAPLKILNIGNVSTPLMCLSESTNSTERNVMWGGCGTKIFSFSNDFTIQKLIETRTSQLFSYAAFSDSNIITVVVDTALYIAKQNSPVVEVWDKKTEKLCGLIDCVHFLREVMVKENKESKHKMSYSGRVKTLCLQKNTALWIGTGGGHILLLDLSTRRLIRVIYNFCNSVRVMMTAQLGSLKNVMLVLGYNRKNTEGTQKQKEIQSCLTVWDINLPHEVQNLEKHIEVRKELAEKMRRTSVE

As to `CCn1cc(Cl)c2cnc(Nc3cn([C@H]4CCN(C(=O)C5CCCC5)C4)nc3Cl)nc21` [Compound 39, (S)-(3-(3-chloro-4-(5-chloro-7-ethyl-7H-pyrrolo[2,3-d]pyrimidin-2-ylamino)-1H-pyrazol-1-yl)pyrrolidin-1-yl)(cyclopentyl)methanone], the IC50 under setting [1] lay within 10 to 100 nM. On to `CCn1cc(Cl)c2cnc(Nc3cn([C@@H]4CCN(S(C)(=O)=O)C4)nc3Cl)nc21` [Compound 36, (R)-5-chloro-N-(3-chloro-1-(1-(methylsulfonyl)pyrrolidin-3-yl)-1H-pyrazol-4-yl)-7-ethyl-7H-pyrrolo[2,3-d]pyrimidin-2-amine], for which the IC50 under setting [1] lay in the range of 10 to 100 nM. The same measure, in the same setting: the result for `CCn1cc(Cl)c2cnc(Nc3c(C)nn(C4CCN(S(C)(=O)=O)CC4)c3C)nc21` [Compound 34, 5-chloro-N-(3,5-dimethyl-1-(1-(methylsulfonyl)piperidin-4-yl)-1H-pyrazol-4-yl)-7-ethyl-7H-pyrrolo[2,3-d]pyrimidin-2-amine] reads 100 to 1000 nM; that for `CCn1cc(Cl)c2cnc(Nc3cn(C4CC(C)OC(C)C4)nc3Cl)nc21` (stereo not shown) [Compound 19, 5-chloro-N-(3-chloro-1-(2,6-dimethyltetrahydro-2H-pyran-4-yl)-1H-pyrazol-4-yl)-7-ethyl-7H-pyrrolo[2,3-d]pyrimidin-2-amine], 10 to 100 nM. Regarding `CCn1cc(Cl)c2cnc(Nc3cn(C4CCN(C(=O)N5CCN(C)CC5)CC4)nc3Cl)nc21` [Compound 32, (4-(3-chloro-4-(5-chloro-7-ethyl-7H-pyrrolo[2,3-d]pyrimidin-2-ylamino)-1H-pyrazol-1-yl)piperidin-1-yl)(4-methylpiperazin-1-yl)methanone], the IC50 is, setting by setting: under setting [1], < 10 nM; under setting [2], 2.5 nM.

In the case of `CCn1cc(Cl)c2cnc(Nc3cn(C4CN(C(=O)C5CC5)C4)nc3Cl)nc21` [Compound 41, (3-(3-chloro-4-(5-chloro-7-ethyl-7H-pyrrolo[2,3-d]pyrimidin-2-ylamino)-1H-pyrazol-1-yl)azetidin-1-yl)(cyclopropyl)methanone], under setting [1], the IC50 was 10 to 100 nM. Still for that read-out and setting: the result for `CCn1nc(Cl)c2cnc(Nc3cn(-c4ccc(F)cc4)nc3Cl)nc21` [Compound 44, 3-chloro-N-(3-chloro-1-(4-fluorophenyl)-1H-pyrazol-4-yl)-1-ethyl-1H-pyrazolo[3,4-d]pyrimidin-6-amine] reads 10 to 100 nM; that for `CCn1cc(Cl)c2cnc(Nc3cn(C4CCCN(C(=O)C5CC5)CC4)nc3Cl)nc21` (stereo not shown) [Compound 43, (4-(3-chloro-4-(5-chloro-7-ethyl-7H-pyrrolo[2,3-d]pyrimidin-2-ylamino)-1H-pyrazol-1-yl)azepan-1-yl)(cyclopropyl)methanone], < 10 nM; that for `CC(C)n1cc(Nc2ncc3c(Cl)cn(C(C)C)c3n2)c(Cl)n1` [Compound 7, 5-chloro-N-(3-chloro-1-isopropyl-1H-pyrazol-4-yl)-7-isopropyl-7H-pyrrolo[2,3-d]pyrimidin-2-amine], 10 to 100 nM.

For the molecule `CCCCn1cc(Nc2ncc3c(Cl)cn(C)c3n2)c(C(F)(F)F)n1` [Compound 11, N-(1-butyl-3-(trifluoromethyl)-1H-pyrazol-4-yl)-5-chloro-7-methyl-7H-pyrrolo[2,3-d]pyrimidin-2-amine], under setting [1], the IC50 was 1000 to 10000 nM.

With `Clc1cn(C2CC2)c2nc(Nc3cnn(C4CCN(C5COC5)CC4)c3Cl)ncc12` [Compound 29, 5-chloro-N-(5-chloro-1-(1-(oxetan-3-yl)piperidin-4-yl)-1H-pyrazol-4-yl)-7-cyclopropyl-7H-pyrrolo[2,3-d]pyrimidin-2-amine], the IC50 under setting [1] fell in the range of 10 to 100 nM.

Consider `CCn1nc(Cl)c2cnc(Nc3cn(C4CCCN(C(=O)C5CC5)CC4)nc3Cl)nc21` (stereo not shown) [Compound 52, (4-(3-chloro-4-(3-chloro-1-ethyl-1H-pyrazolo[3,4-d]pyrimidin-6-ylamino)-1H-pyrazol-1-yl)azepan-1-yl)(cyclopropyl)methanone], for which the IC50 under setting [1] was < 10 nM and the IC50 under setting [2] was 5.6 nM. Take `CCn1cc(Cl)c2cnc(Nc3cn(C4CCN(C)CC4)nc3Cl)nc21` [Compound 17, 5-chloro-N-(3-chloro-1-(1-methylpiperidin-4-yl)-1H-pyrazol-4-yl)-7-ethyl-7H-pyrrolo[2,3-d]pyrimidin-2-amine]: the IC50 under setting [1] lay within 10 to 100 nM. On to `CS(=O)(=O)N1CCC(n2cc(Nc3ncc4c(Cl)cn(C5CC5)c4n3)c(Cl)n2)CC1` [Compound 30, 5-chloro-N-(3-chloro-1-(1-(methylsulfonyl)piperidin-4-yl)-1H-pyrazol-4-yl)-7-cyclopropyl-7H-pyrrolo[2,3-d]pyrimidin-2-amine], for which the IC50 under setting [1] was < 10 nM and the IC50 under setting [2] came to 2.02 nM. With `CCn1cc(Cl)c2cnc(Nc3cn(CC4CC4)nc3Cl)nc21` [Compound 13, 5-chloro-N-(3-chloro-1-(cyclopropylmethyl)-1H-pyrazol-4-yl)-7-ethyl-7H-pyrrolo[2,3-d]pyrimidin-2-amine], the IC50 under setting [1] was 10 to 100 nM.

Regarding `Cn1ncc(Nc2ncc3c(Cl)cn(C)c3n2)c1Cl` [Compound 5, 5-chloro-N-(5-chloro-1-methyl-1H-pyrazol-4-yl)-7-methyl-7H-pyrrolo[2,3-d]pyrimidin-2-amine], the IC50 under setting [1] was in the range of 10 to 100 nM. For `CCn1cc(Cl)c2cnc(Nc3cn(C4CCCN(S(C)(=O)=O)CC4)nc3Cl)nc21` (stereo not shown) [Compound 42, 5-chloro-N-(3-chloro-1-(1-(methylsulfonyl)azepan-4-yl)-1H-pyrazol-4-yl)-7-ethyl-7H-pyrrolo[2,3-d]pyrimidin-2-amine], under setting [1], the 50% inhibitory concentration (IC50) is < 10 nM. Regarding `CCn1cc(Cl)c2cnc(Nc3cn([C@H]4CCN(S(C)(=O)=O)C4)nc3Cl)nc21` [Compound 37, (S)-5-chloro-N-(3-chloro-1-(1-(methylsulfonyl)pyrrolidin-3-yl)-1H-pyrazol-4-yl)-7-ethyl-7H-pyrrolo[2,3-d]pyrimidin-2-amine], the IC50 under setting [1] lay within 10 to 100 nM. Turning to `CCn1cc(Cl)c2cnc(Nc3cn(C4CCN(C(=O)C5CC5)CC4)nc3Cl)nc21` [Compound 24, (4-(3-chloro-4-(5-chloro-7-ethyl-7H-pyrrolo[2,3-d]pyrimidin-2-ylamino)-1H-pyrazol-1-yl)piperidin-1-yl)(cyclopropyl)methanone], the IC50 under setting [1] fell in the range of 10 to 100 nM. On to `CCn1cc(Cl)c2cnc(Nc3cn(C4CCN(S(C)(=O)=O)CC4)nc3Cl)nc21` [Compound 25, 5-chloro-N-(3-chloro-1-(1-(methylsulfonyl)piperidin-4-yl)-1H-pyrazol-4-yl)-7-ethyl-7H-pyrrolo[2,3-d]pyrimidin-2-amine], for which the IC50 by setting is: under setting [1], < 10 nM; under setting [2], 6.67 nM. As to `CCn1cc(Cl)c2cnc(Nc3cn(C4CCN(S(=O)(=O)C5CC5)CC4)nc3Cl)nc21` [Compound 35, 5-chloro-N-(3-chloro-1-(1-(cyclopropylsulfonyl)piperidin-4-yl)-1H-pyrazol-4-yl)-7-ethyl-7H-pyrrolo[2,3-d]pyrimidin-2-amine], the IC50 is, setting by setting: under setting [1], < 10 nM; under setting [2], 6.66 nM. Consider `CCn1cc(Cl)c2cnc(Nc3cn(C4CC4)nc3Cl)nc21` [Compound 14, 5-chloro-N-(3-chloro-1-cyclopropyl-1H-pyrazol-4-yl)-7-ethyl-7H-pyrrolo[2,3-d]pyrimidin-2-amine], for which the IC50 under setting [1] was in the range of 10 to 100 nM. On to `CCn1nc(Cl)c2cnc(Nc3cn(C4CCN(C(=O)C(F)(F)F)CC4)nc3Cl)nc21` [Compound 48, 1-(4-(3-chloro-4-(3-chloro-1-ethyl-1H-pyrazolo[3,4-d]pyrimidin-6-ylamino)-1H-pyrazol-1-yl)piperidin-1-yl)-2,2,2-trifluoroethanone], for which the IC50 under setting [1] lay in the range of 10 to 100 nM. As to `CC(=O)N1CCC(n2ncc(Nc3ncc4c(Cl)cn(C)c4n3)c2Cl)CC1` [Compound 23, 1-(4-(5-chloro-4-(5-chloro-7-methyl-7H-pyrrolo[2,3-d]pyrimidin-2-ylamino)-1H-pyrazol-1-yl)piperidin-1-yl)ethanone], the IC50 under setting [1] lay within 10 to 100 nM. In the case of `COc1nn(C(C)C)cc1Nc1ncc2c(Cl)cn(C)c2n1` [Compound 2, 5-chloro-N-(1-isopropyl-3-methoxy-1H-pyrazol-4-yl)-7-methyl-7H-pyrrolo[2,3-d]pyrimidin-2-amine], the IC50 under setting [1] was 10 to 100 nM. For the molecule `CS(=O)(=O)N1CCC(n2cc(Nc3ncc4c(Cl)nn(C5CC5)c4n3)c(Cl)n2)CC1` [Compound 46, 3-chloro-N-(3-chloro-1-(1-(methylsulfonyl)piperidin-4-yl)-1H-pyrazol-4-yl)-1-cyclopropyl-1H-pyrazolo[3,4-d]pyrimidin-6-amine], the IC50 by setting is: under setting [1], < 10 nM; under setting [2], 7.91 nM. With `COCCn1cc(Nc2ncc3c(Cl)cn(C)c3n2)c(C(F)(F)F)n1` [Compound 10, 5-chloro-N-(1-(2-methoxyethyl)-3-(trifluoromethyl)-1H-pyrazol-4-yl)-7-methyl-7H-pyrrolo[2,3-d]pyrimidin-2-amine], the IC50 under setting [1] lay in the range of 100 to 1000 nM. Consider `CCn1nc(Cl)c2cnc(Nc3c(Cl)nn(C4CCN(C(=O)C5CC5)CC4)c3C)nc21` [Compound 56, (4-(3-chloro-4-(3-chloro-1-ethyl-1H-pyrazolo[3,4-d]pyrimidin-6-ylamino)-5-methyl-1H-pyrazol-1-yl)piperidin-1-yl)(cyclopropyl)methanone], for which the IC50 under setting [1] is 100 to 1000 nM.

As usually defined, the IC50 is the concentration that inhibits the measured activity by half.
